This note sets out measurements from publication PMC8286840, “Identifying SARS-CoV-2 antiviral compounds by screening for small molecule inhibitors of Nsp3 papain-like protease” (Biochemical Journal, 2021).

For assay [1], the target named is T1, SARS-CoV-2 PLpro (nsp3 1564–1878) (Severe acute respiratory syndrome coronavirus 2, UniProt P0DTD1). Nature of the assay: biochemical. To be noted: read-out: % of control remaining. More on the design: FRET-quenched peptide (Pro3) cleavage by PLpro, 10 min pre-incubation, slope over 20 min, normalised to no-compound control.
The target of assay [2] is T1, SARS-CoV-2 PLpro (nsp3 1564–1878). Nature of the assay: biochemical. Set-up: FRET-quenched peptide (Pro3) cleavage by PLpro, 10 min pre-incubation, slope over 20 min, normalised to no-compound control. To be noted: read-out: % of control remaining. The source holds these as a separate data set.

Structures can show the parent of a compound that is named as a salt. Where two headings read alike, the source gives them in different places.

As to `Oc1ccc(/C=C/c2cc(O)cc(O)c2)cc1` [Resveratrol], the remaining activity at 3.75 µM in assay [1] (Well no.=1492, high concentration screen) was 95.7%; in assay [1] (Well no.=3130, high concentration screen), 102%; in assay [1] (Well no.=3847, high concentration screen), 101%. The remaining activity at 1.25 µM in assay [2] (Well no.=1492, low concentration screen) was 94.9%; in assay [2] (Well no.=3130, low concentration screen), 101%; in assay [2] (Well no.=3847, low concentration screen), 103%.

Turning to `Cc1cn([C@H]2O[C@@H](CO)[C@H](O)[C@H]2F)c(=O)[nH]c1=O` [Clevudine], the remaining activity at 3.75 µM in assay [1] (Well no.=8012, high concentration screen) was 100%; in assay [1] (Well no.=8342, high concentration screen), 91.2%. The remaining activity at 1.25 µM amounted to 98% in assay [2] (Well no.=8012, low concentration screen) and 92.4% in assay [2] (Well no.=8342, low concentration screen).

As to `COc1cc2c(cc1O)CC[C@@H]1[C@@H]2CC[C@]2(C)[C@@H](O)CC[C@@H]12` [2-Methoxyestradiol], the remaining activity at 3.75 µM in assay [1] (Well no.=836, high concentration screen) came out at 102%; in assay [1] (Well no.=6292, high concentration screen), 93.3%. For the same compound, the remaining activity at 1.25 µM in assay [2] (Well no.=836, low concentration screen) came out at 105%; in assay [2] (Well no.=6292, low concentration screen), 95.9%.

`Cc1cccc(C(=O)NCN2CCN(c3ccccc3C#N)CC2)c1` [PD 168,077 maleate]: the remaining activity at 3.75 µM in assay [1] (Well no.=1171, high concentration screen) stood at 107%. In addition, the remaining activity at 1.25 µM in assay [2] (Well no.=1171, low concentration screen) stood at 106%.

On to `COc1ccc(C2(C#N)CCC(C(=O)O)CC2)cc1OC1CCCC1` (stereo not shown) [4-cyano-4-[3-(cyclopentyloxy)-4-methoxyphenyl]cyclohexanecarboxylic acid], for which the remaining activity at 3.75 µM in assay [1] (Well no.=5837, high concentration screen) was 99.9%. Moreover, in assay [2] (Well no.=5837, low concentration screen), the remaining activity at 1.25 µM is 101%.

In the case of `N[C@H](CO)C(=O)O` [(R)-Serine], the remaining activity at 3.75 µM in assay [1] (Well no.=7739, high concentration screen) was determined as 100%. The remaining activity at 1.25 µM in assay [2] (Well no.=7739, low concentration screen) was 99.9%.

Take `COC(=O)Nc1ccc(-c2nc(N3CCOCC3)c3cnn(C4CCN(C(=O)OC)CC4)c3n2)cc1` [WYE-354]: in assay [1] (Well no.=4769, high concentration screen), the remaining activity at 3.75 µM stood at 103%. Moreover, the remaining activity at 1.25 µM in assay [2] (Well no.=4769, low concentration screen) worked out at 101%.

With `CC(C)NCC(O)c1ccc(N)c(C#N)c1` (stereo not shown) [Cimaterol], in assay [1] (Well no.=1779, high concentration screen), the remaining activity at 3.75 µM worked out at 99.7%. In assay [2] (Well no.=1779, low concentration screen), the remaining activity at 1.25 µM came to 102%.

Turning to `O=C1C(=O)N(Cc2ccc(Cl)c(Cl)c2)c2ccccc21` [Apoptosis Activator 2], in assay [1] (Well no.=5259, high concentration screen), the remaining activity at 3.75 µM is 95.7%. Besides, the remaining activity at 1.25 µM in assay [2] (Well no.=5259, low concentration screen) was found to be 98.8%.

Consider `Cc1c(N)nc([C@H](CC(N)=O)NC[C@H](N)C(N)=O)nc1C(=O)N[C@H](C(=O)N[C@H](C)[C@@H](O)[C@H](C)C(=O)N[C@H](C(=O)NCCc1nc(-c2nc(C(=O)NCCC[S+](C)C)cs2)cs1)[C@@H](C)O)[C@@H](OC1OC(CO)C(O)C(O)C1OC1OC(CO)C(O)C(OC(N)=O)C1O)c1cnc[nH]1` (stereo partly shown) [Bleomycin], for which the remaining activity at 3.75 µM in assay [1] (Well no.=1890, high concentration screen) worked out at 91.9%. Moreover, in assay [2] (Well no.=1890, low concentration screen), the remaining activity at 1.25 µM stood at 89.5%.

For `NCc1cc(O)no1` [Muscimol hydrobromide], the remaining activity at 3.75 µM in assay [1] (Well no.=556, high concentration screen) amounted to 94.1%. The remaining activity at 1.25 µM in assay [2] (Well no.=556, low concentration screen) was 95.9%.

On to `COC[C@H](NC(=O)c1cnc(C)s1)C(=O)N[C@@H](COC)C(=O)N[C@@H](Cc1ccccc1)C(=O)[C@@]1(C)CO1` [Oprozomib (ONX 0912)], for which the remaining activity at 3.75 µM in assay [1] (Well no.=4976, high concentration screen) was 89.5%. In addition, the remaining activity at 1.25 µM in assay [2] (Well no.=4976, low concentration screen) came out at 90.1%.

Consider `O=C(CCCN1CCC(O)(c2cccc(C(F)(F)F)c2)CC1)c1ccc(F)cc1` [Trifluperidol hydrochloride], for which the remaining activity at 3.75 µM in assay [1] (Well no.=1376, high concentration screen) was 94.4%. The remaining activity at 1.25 µM in assay [2] (Well no.=1376, low concentration screen) came out at 96.4%.

As for `CC(C)N(CCC(=O)c1ccc2ccccc2c1)Cc1ccccc1` [JAK3 Inhibitor IV], in assay [1] (Well no.=2459, high concentration screen), the remaining activity at 3.75 µM amounted to 93.9%. Besides, the remaining activity at 1.25 µM in assay [2] (Well no.=2459, low concentration screen) worked out at 94%.

Turning to `CN1[C@@H]2CCC[C@H]1C[C@@H](NC(=O)c1nn(C)c3ccccc13)C2` [Granisetron], the remaining activity at 3.75 µM in assay [1] (Well no.=1910, high concentration screen) amounted to 91.6%. Further, the remaining activity at 1.25 µM in assay [2] (Well no.=1910, low concentration screen) amounted to 93.3%.

Turning to `COc1cc(NC(=O)c2ccccn2)ccc1Cl` [VU 0361737], the remaining activity at 3.75 µM in assay [1] (Well no.=4837, high concentration screen) amounted to 106%. The remaining activity at 1.25 µM in assay [2] (Well no.=4837, low concentration screen) is 98.5%.

For the compound `COc1ccc2cc1Oc1ccc(cc1)C[C@H]1c3c(cc4c(c3Oc3cc5c(cc3OC)CCN(C)[C@@H]5C2)OCO4)CCN1C` [Cepharanthine], the remaining activity at 3.75 µM in assay [1] (Well no.=3555, high concentration screen) turned out to be 106%. Moreover, the remaining activity at 1.25 µM in assay [2] (Well no.=3555, low concentration screen) stood at 102%.

`Cc1ccc(S(=O)(=O)NC(=O)NN2CCCCCC2)cc1` [Tolazamide]: the remaining activity at 3.75 µM in assay [1] (Well no.=1523, high concentration screen) was 94.7%; in assay [1] (Well no.=1810, high concentration screen), 93.8%. Also, the remaining activity at 1.25 µM in assay [2] (Well no.=1523, low concentration screen) is 93.9%; in assay [2] (Well no.=1810, low concentration screen), 100%.

Take `CCc1ccc(NC(=O)Nc2c[nH]c3ccccc23)cc1` [H-151]: the remaining activity at 3.75 µM in assay [1] (Well no.=8555, high concentration screen) amounted to 103%. Further, the remaining activity at 1.25 µM in assay [2] (Well no.=8555, low concentration screen) turned out to be 102%.

With `COc1cc(NC(=O)c2ccc(-c3ccc(Cl)cc3)o2)cc(OC)c1` [A-803467], the remaining activity at 3.75 µM in assay [1] (Well no.=5117, high concentration screen) was 103%. Besides, the remaining activity at 1.25 µM in assay [2] (Well no.=5117, low concentration screen) is 105%.

On to `O=C1C2CCN(CC2)C1(CO)CO` [PRIMA-1], for which the remaining activity at 3.75 µM in assay [1] (Well no.=6486, high concentration screen) was 97.6%. In addition, the remaining activity at 1.25 µM in assay [2] (Well no.=6486, low concentration screen) was 96.7%.

For `Cc1ccc2c(c1CCC(=O)O)CC[C@@H](NS(=O)(=O)c1ccc(Cl)cc1)C2` [Terutroban], in assay [1] (Well no.=7149, high concentration screen), the remaining activity at 3.75 µM stood at 94.2%. In addition, the remaining activity at 1.25 µM in assay [2] (Well no.=7149, low concentration screen) came to 93.3%.

In the case of `CC1(C)CC(=O)c2c(C(F)(F)F)nn(-c3ccc(C(N)=O)c(N[C@H]4CC[C@H](O)CC4)c3)c2C1` [SNX-2112], in assay [1] (Well no.=4635, high concentration screen), the remaining activity at 3.75 µM stood at 95.7%. Also, in assay [2] (Well no.=4635, low concentration screen), the remaining activity at 1.25 µM was 99.3%.

With `CN1N=C2CCN(C(=O)[C@@H](COCc3ccccc3)NC(=O)C(C)(C)N)C[C@@]2(Cc2ccccc2)C1=O` [Capromorelin (Tartrate)], in assay [1] (Well no.=7235, high concentration screen), the remaining activity at 3.75 µM is 102%. In assay [2] (Well no.=7235, low concentration screen), the remaining activity at 1.25 µM was 96.9%.

As to `CNC(=O)c1cc(COc2nnc(Nc3ccc(Cl)cc3)c3ccoc23)ccn1` [Telatinib (BAY 57-9352)], the remaining activity at 3.75 µM in assay [1] (Well no.=4858, high concentration screen) worked out at 104%. Also, in assay [2] (Well no.=4858, low concentration screen), the remaining activity at 1.25 µM was determined as 99.7%.

Consider `O=c1[nH]c2ccccc2n1C1CCN(CCCC(c2ccc(F)cc2)c2ccc(F)cc2)CC1` [Pimozide], for which the remaining activity at 3.75 µM worked out at 95% in assay [1] (Well no.=1094, high concentration screen) and 95.7% in assay [1] (Well no.=1595, high concentration screen). In addition, the remaining activity at 1.25 µM was determined as 93.3% in assay [2] (Well no.=1094, low concentration screen) and 99.2% in assay [2] (Well no.=1595, low concentration screen).

With `NC12CC3CC(CC(C3)C1)C2` [Amantadine hydrochloride], in assay [1] (Well no.=9, high concentration screen), the remaining activity at 3.75 µM stood at 103%. Besides, in assay [2] (Well no.=9, low concentration screen), the remaining activity at 1.25 µM is 104%.

In the case of `Cc1cccc(-c2nn(C(=S)Nc3ccccc3)cc2-c2ccnc3ccccc23)n1` [3-(6-methyl-2-pyridinyl)-N-phenyl-4-(4-quinolinyl)-1H-pyrazole-1-carbothioamide], in assay [1], the remaining activity at 3.75 µM was 100%. Also, in assay [2], the remaining activity at 1.25 µM worked out at 99.2%.

As to `c1ccc2sc(C3(N4CCCCC4)CCCCC3)cc2c1` [BTCP hydrochloride], the remaining activity at 3.75 µM in assay [1] (Well no.=325, high concentration screen) is 96.6%. Moreover, the remaining activity at 1.25 µM in assay [2] (Well no.=325, low concentration screen) was found to be 101%.
